From US8710062B2, “Piperazinedione compounds” (Taipei Medical University, priority 2011, dated 2014)
Structures can show the parent of a compound that is named as a salt.

Assays:
[1] = target: ABL1 (Mus musculus, UniProt P00520); experiment: Kinome inhibition assay; format: biochemical
Description: (§1) Kinome inhibition studies were conducted following the procedures described in literature. […] In general, each purified kinase was incubated with its substrate in buffer (MOPS buffer or HEPES buffer) containing an essential metal co-enzyme or cofactor, antioxidant, and ATP (gamma-P^32 radio-labeled ATP or cold ATP). Compound 2 was co-incubated with the kinase solution thus obtained for 0.5-1 hr at 37° C. The reaction was stopped by boiling the reaction solution with an extra SDS solution. The phosphorylation level of the substrate was monitored ether by quantification of the radio-labeled substrate or by quantification of phosphor-substrate specific antibodies. In each study, a reference standard was run as an integral part to ensure the validity of the experimental results obtained. The table below includes the IC50 values obtained from this experiment.

[2] = target: AKT1 (PRKBA) (Homo sapiens, UniProt P31749); experiment: Kinome inhibition assay; format: biochemical
Description: as §1

[3] = target: AURKA (Aurora-A) (Homo sapiens, UniProt O14965); experiment: Kinome inhibition assay; format: biochemical
Description: as §1

[4] = target: CAMK2D (KCC2D) (Homo sapiens, UniProt Q13557); experiment: Kinome inhibition assay; format: biochemical
Description: as §1

[5] = target: CDC42BPB (Homo sapiens, UniProt Q9Y5S2); experiment: Kinome inhibition assay; format: biochemical
Chain of CDC42BPB (Q9Y5S2 whole entry): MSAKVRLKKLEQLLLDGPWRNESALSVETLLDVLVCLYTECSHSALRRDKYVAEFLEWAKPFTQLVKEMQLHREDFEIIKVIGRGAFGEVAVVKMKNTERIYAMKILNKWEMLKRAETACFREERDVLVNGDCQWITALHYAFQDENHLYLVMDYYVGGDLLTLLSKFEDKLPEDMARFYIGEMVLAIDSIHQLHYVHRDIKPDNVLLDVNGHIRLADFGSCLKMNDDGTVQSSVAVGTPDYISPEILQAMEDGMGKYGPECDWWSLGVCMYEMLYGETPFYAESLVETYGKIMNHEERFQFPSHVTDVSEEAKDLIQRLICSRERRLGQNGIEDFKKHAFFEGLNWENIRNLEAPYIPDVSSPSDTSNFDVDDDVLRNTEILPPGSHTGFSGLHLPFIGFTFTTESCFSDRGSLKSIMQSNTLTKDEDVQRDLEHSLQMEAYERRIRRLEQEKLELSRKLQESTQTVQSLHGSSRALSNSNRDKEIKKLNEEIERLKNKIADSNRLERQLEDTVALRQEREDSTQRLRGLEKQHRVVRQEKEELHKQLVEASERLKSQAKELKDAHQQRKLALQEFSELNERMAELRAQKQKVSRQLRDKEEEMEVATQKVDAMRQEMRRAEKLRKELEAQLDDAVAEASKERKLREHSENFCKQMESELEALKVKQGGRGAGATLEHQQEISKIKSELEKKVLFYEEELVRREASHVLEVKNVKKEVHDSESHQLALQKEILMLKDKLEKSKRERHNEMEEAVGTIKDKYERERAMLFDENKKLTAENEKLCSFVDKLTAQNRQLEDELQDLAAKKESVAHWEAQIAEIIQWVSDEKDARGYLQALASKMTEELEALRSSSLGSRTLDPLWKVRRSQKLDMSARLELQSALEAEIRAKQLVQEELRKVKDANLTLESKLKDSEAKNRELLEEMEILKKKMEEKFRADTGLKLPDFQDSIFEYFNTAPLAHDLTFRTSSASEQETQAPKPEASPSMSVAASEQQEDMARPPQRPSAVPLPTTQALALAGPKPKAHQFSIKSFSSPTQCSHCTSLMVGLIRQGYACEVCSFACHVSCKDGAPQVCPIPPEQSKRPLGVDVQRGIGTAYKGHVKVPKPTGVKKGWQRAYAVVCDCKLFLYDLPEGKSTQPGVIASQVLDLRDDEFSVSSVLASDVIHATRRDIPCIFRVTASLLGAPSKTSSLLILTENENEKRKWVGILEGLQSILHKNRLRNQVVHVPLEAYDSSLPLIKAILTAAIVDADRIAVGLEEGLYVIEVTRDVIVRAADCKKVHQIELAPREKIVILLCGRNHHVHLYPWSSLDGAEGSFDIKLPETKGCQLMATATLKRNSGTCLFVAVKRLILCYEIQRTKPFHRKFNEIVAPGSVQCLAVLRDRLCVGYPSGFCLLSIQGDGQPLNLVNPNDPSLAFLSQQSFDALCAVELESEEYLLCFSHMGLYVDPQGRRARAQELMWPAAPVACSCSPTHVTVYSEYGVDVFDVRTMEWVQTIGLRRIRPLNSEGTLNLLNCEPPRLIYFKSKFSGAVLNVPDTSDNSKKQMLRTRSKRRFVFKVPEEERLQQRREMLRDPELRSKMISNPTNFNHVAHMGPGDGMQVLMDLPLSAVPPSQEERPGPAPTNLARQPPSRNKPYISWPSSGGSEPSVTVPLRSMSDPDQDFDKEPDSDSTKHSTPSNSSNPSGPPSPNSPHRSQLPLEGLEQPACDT
Description: as §1

[6] = target: ERBB2 (HER2) (Homo sapiens, UniProt P04626); experiment: Kinome inhibition assay; format: biochemical
Description: as §1

[7] = target: FER (TYK3) (Homo sapiens, UniProt P16591); experiment: Kinome inhibition assay; format: biochemical
Description: as §1

[8] = target: GSK3B (Homo sapiens, UniProt P49841); experiment: Kinome inhibition assay; format: biochemical
Chain of GSK3B (P49841 whole entry): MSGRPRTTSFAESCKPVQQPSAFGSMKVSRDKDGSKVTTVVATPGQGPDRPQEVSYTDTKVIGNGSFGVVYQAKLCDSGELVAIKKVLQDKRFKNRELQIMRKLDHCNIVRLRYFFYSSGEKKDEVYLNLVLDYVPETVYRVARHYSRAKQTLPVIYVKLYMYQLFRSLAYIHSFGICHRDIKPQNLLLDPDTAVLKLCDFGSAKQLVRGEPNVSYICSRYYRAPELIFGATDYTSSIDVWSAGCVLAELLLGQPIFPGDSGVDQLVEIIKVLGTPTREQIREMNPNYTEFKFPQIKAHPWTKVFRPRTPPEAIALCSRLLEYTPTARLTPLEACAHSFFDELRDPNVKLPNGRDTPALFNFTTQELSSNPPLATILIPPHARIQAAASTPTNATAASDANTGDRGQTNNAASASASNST
Description: as §1

[9] = target: Insulin Receptor (Homo sapiens, UniProt P06213); experiment: Kinome inhibition assay; format: biochemical
Chain of Insulin Receptor (P06213 28-1382): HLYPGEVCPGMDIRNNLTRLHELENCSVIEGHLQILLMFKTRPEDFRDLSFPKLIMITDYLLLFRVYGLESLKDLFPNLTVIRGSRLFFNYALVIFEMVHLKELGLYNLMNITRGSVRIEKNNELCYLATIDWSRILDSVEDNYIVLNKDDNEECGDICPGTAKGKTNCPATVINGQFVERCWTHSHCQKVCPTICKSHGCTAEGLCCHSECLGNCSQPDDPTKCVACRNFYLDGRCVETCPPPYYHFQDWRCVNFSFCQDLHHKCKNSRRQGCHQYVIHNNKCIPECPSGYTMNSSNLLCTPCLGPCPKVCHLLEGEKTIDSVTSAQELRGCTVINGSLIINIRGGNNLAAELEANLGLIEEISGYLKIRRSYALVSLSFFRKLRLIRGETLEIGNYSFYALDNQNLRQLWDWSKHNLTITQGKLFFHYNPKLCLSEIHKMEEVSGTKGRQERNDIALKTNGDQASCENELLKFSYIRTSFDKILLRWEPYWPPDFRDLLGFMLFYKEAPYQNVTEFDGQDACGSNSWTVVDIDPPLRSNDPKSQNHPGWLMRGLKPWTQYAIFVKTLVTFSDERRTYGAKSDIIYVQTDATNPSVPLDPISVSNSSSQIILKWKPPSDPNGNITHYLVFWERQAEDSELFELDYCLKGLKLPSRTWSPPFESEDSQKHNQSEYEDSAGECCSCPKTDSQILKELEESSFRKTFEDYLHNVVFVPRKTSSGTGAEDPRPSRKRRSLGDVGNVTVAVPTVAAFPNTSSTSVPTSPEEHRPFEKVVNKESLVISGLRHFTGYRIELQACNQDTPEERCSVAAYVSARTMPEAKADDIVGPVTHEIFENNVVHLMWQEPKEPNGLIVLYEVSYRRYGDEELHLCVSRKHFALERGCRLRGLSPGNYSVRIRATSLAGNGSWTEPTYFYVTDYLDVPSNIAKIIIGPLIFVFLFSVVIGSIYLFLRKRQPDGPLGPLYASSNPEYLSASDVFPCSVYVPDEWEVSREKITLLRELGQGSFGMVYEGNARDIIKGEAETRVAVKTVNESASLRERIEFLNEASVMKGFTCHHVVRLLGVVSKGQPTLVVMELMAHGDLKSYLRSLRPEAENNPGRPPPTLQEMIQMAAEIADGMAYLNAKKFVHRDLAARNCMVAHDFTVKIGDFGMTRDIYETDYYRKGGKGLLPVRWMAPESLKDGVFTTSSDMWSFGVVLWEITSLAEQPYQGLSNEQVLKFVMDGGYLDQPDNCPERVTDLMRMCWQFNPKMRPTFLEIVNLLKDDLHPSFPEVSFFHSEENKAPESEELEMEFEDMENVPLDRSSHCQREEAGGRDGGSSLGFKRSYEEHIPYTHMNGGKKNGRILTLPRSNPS
Description: as §1

[10] = target: LMK1 (Homo sapiens, UniProt P53667); experiment: Kinome inhibition assay; format: biochemical
Description: as §1

[11] = target: MAPK8 (JNK1) (Homo sapiens, UniProt P45983); experiment: Kinome inhibition assay; format: biochemical
Chain of MAPK8 (JNK1) (P45983 whole entry): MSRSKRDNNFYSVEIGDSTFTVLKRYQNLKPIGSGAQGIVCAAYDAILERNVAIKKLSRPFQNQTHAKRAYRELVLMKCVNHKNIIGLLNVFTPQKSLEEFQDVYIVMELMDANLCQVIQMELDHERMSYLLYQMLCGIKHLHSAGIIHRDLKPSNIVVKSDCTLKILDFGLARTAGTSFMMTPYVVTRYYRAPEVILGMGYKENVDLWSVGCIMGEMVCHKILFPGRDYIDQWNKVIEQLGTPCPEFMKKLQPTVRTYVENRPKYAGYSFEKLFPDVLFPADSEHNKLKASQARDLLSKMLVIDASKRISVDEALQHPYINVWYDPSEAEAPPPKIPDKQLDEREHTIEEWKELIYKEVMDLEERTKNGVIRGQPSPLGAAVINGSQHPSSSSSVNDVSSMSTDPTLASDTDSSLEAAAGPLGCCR
Description: as §1

[12] = target: MET (HGFR) (Homo sapiens, UniProt P08581); experiment: Kinome inhibition assay; format: biochemical
Description: as §1

[13] = target: NTRK1 (TRKA) (Homo sapiens, UniProt P04629); experiment: Kinome inhibition assay; format: biochemical
Chain of NTRK1 (TRKA) (P04629 33-796): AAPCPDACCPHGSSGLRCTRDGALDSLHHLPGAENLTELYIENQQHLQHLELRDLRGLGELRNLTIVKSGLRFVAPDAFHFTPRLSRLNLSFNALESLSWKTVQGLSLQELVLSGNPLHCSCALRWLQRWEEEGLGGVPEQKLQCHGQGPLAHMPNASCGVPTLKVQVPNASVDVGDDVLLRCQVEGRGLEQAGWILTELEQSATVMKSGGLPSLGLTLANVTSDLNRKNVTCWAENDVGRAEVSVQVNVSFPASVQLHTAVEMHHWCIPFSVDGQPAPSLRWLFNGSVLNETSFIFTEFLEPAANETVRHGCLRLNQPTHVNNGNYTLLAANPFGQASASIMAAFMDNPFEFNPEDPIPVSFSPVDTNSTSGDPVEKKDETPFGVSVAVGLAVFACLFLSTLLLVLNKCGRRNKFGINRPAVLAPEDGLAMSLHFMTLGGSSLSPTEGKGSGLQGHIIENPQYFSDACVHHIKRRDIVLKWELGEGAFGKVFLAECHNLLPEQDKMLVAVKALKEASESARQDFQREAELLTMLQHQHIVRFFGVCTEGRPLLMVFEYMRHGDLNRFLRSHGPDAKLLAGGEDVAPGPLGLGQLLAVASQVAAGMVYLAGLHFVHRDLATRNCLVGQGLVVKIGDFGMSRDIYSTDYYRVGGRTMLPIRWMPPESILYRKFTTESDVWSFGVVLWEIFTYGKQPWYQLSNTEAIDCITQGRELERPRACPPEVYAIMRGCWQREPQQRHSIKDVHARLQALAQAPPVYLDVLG
Description: as §1

[14] = target: PDK1 (Homo sapiens, UniProt O15530); experiment: Kinome inhibition assay; format: biochemical
Description: as §1

[15] = target: PIM1 (Homo sapiens, UniProt P11309); experiment: Kinome inhibition assay; format: biochemical
Description: as §1

[16] = target: RET (Homo sapiens, UniProt P07949); experiment: Kinome inhibition assay; format: biochemical
Description: as §1

[17] = target: RP56KA5 (MSK1) (Homo sapiens, UniProt O75582); experiment: Kinome inhibition assay; format: biochemical
Description: as §1

[18] = target: SGK1 (Homo sapiens, UniProt O00141); experiment: Kinome inhibition assay; format: biochemical
Description: as §1

[19] = target: SGK2 (Homo sapiens, UniProt Q9HBY8); experiment: Kinome inhibition assay; format: biochemical
Chain of SGK2 (Q9HBY8 whole entry): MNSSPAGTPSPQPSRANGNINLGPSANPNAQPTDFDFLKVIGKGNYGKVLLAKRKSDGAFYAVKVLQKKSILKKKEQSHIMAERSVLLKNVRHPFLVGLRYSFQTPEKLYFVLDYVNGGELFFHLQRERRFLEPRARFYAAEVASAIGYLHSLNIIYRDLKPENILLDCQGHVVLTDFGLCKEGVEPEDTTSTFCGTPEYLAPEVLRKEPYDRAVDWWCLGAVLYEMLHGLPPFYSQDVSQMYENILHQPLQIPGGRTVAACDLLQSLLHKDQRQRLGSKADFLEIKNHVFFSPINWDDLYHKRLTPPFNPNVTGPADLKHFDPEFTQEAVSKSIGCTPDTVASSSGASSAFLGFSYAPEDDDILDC
Description: as §1

[20] = target: SRPK1 (Homo sapiens, UniProt Q96SB4); experiment: Kinome inhibition assay; format: biochemical
Description: as §1

[21] = system: human HL-60 promyelocytic leukemia xenograft; experiment: HL-60 xenograft in SCID mice; details: for median TTE (time to endpoint): control median TTE 11.0 days
Description: Nude-athymic mice were maintained in accordance with the Institutional Animal Care and Use Committee procedures and guidelines.
The medium was supplemented with 10% heat-inactivated fetal bovine serum and 2 mM glutamine.
The human HL-60 promyelocytic leukemia cells used for implantation were harvested during log phase growth and resuspended in phosphate-buffered saline at 8.0×10^7 cells/mL. Each mouse was injected s.c. in the right flank with 1.6×10^7 cells (0.2 mL cell suspension). Tumors were monitored twice weekly and then daily as their volumes approached 100 mm^3. […] Tumor size, in mm3, was calculated as: Tumor Volume=w2×l, where w=width and l=length in mm of the tumor. Tumor weight can be estimated with the assumption that 1 mg is equivalent to 1 mm3 of tumor volume.
The agent was given dose at 5 mg/kg once every day (qd) and every other day (q2d) to endpoint. Treatments began on Day 1 (D1) in groups of male SCID mice (n=6) bearing established (˜444.4 mm3) subcutaneous tumors. […] Logrank tests determine significance of the differences between TTE values for drug-treated and control mice, at P≦0.05.

[22] = @ 10 μM, read-out: Single dose inhibition
[23] = @ 30 μM, read-out: Single dose inhibition
[24] = 5 mg/kg p.o. every other day (q2d)

O=c1[nH]/c(=C\c2ccc(OCc3ccncc3)cn2)c(=O)[nH]/c1=C\c1ccccc1 [Compound 2, 3-benzylidene-6-((5-(pyridin-4-ylmethoxy)pyridin-2-yl)methylene)piperazine-2,5-dione methanesulfonic acid salt]
inhibition at 10 µM [1, 22]: 90%
IC50 ([1]; ABL1, Mouse): 3.17 µM
inhibition at 10 µM [2, 22]: 93%
IC50 ([2]; AKT1 (PRKBA), Human): 3.93 µM
inhibition at 30 µM [3, 23]: 73%
IC50 ([3]; AURKA (Aurora-A), Human): 13.7 µM
inhibition at 10 µM [4, 22]: 70%
IC50 ([4]; CAMK2D (KCC2D), Human): 7.39 µM
inhibition at 10 µM [5, 22]: 52%
IC50 ([5]; CDC42BPB, Human): 8.18 µM
inhibition at 10 µM [6, 22]: 69%
IC50 ([6]; ERBB2 (HER2), Human): 5.56 µM
inhibition at 10 µM [7, 22]: 55%
IC50 ([7]; FER (TYK3), Human): 7.23 µM
inhibition at 30 µM [8, 23]: 69%
IC50 ([8]; GSK3B, Human): 10.9 µM
inhibition at 3 µM ([9]; @ 3 μM, read-out: Single dose inhibition): 70%
IC50 ([9]; Insulin Receptor, Human): 1830 nM
inhibition at 10 µM [10, 22]: 68%
IC50 ([10]; LMK1, Human): 5.8 µM
inhibition at 10 µM [11, 22]: 74%
IC50 ([11]; MAPK8 (JNK1), Human): 4.79 µM
inhibition at 30 µM [12, 23]: 79%
IC50 ([12]; MET (HGFR), Human): 12.3 µM
inhibition at 30 µM [13, 23]: 66%
IC50 ([13]; NTRK1 (TRKA), Human): 17.4 µM
inhibition at 10 µM [14, 22]: 59%
IC50 ([14]; PDK1, Human): 8.18 µM
inhibition at 30 µM [15, 23]: 98%
IC50 ([15]; PIM1, Human): 9.52 µM
inhibition at 10 µM [16, 22]: 73%
IC50 ([16]; RET, Human): 4.89 µM
inhibition at 10 µM [17, 22]: 53%
IC50 ([17]; RP56KA5 (MSK1), Human): 7.88 µM
inhibition at 10 µM [18, 22]: 83%
IC50 ([18]; SGK1, Human): 2920 nM
inhibition at 10 µM [19, 22]: 78%
IC50 ([19]; SGK2, Human): 3.55 µM
inhibition at 10 µM [20, 22]: 61%
IC50 ([20]; SRPK1, Human): 10.6 µM
% TGD (percent tumor growth delay) [21, 24]: 120%
T−C [21, 24]: 13.2 days
median TTE (time to endpoint) [21, 24]: 24.2 days
maximum BW loss ([21]; 5 mg/kg p.o. every other day (q2d), on day 8): 4.2%
% TGD (percent tumor growth delay) ([21]; 5 mg/kg p.o. once a day (qd)): 29%
T−C ([21]; 5 mg/kg p.o. once a day (qd)): 3.2 days
median TTE (time to endpoint) ([21]; 5 mg/kg p.o. once a day (qd)): 14.2 days
treatment related deaths ([21]; 5 mg/kg p.o. once a day (qd), n=6): Two
maximum BW loss ([21]; 5 mg/kg p.o. once a day (qd), on day 11): 1.9%
